These molecules were tested against T1, human Fatty Acid Synthase (Homo sapiens, UniProt P49327) (assay: Human FAS enzyme assay (decrease in NADPH fluorescence)). Conditions: % inhibition at a concentration of 100 micromolar.
T1 construct: made in house
Assay type: biochemical
Text: The compounds of the present invention are Fatty Acid Synthase inhibitors. […] Human and Rat FAS Enzyme Assay.
Fatty acid synthase is an enzyme complex that harbours seven enzymatic activities catalysing the reductive synthesis of long chain fatty acids from acetyl CoA and malonyl CoA to palmitate. When acetyl CoA and malonyl CoA are forming palmitate NADPH is consumed forming NADP. Since NADPH is fluorescent but not NADP the reaction can be measured by analysing the decrease in fluorescence.
Compounds were added to a black 384 well plate (Matrix) in a volume of 5 μl consisting of 20% DMSO and 80% Tris buffer pH 7.5, at a top concentration of 1 mM. NADPH, 30 μl of 166.6 μM, formulated in assay buffer (0.1M Tris ph7.5, 0.1 mM EDTA, 1 mM glutathione, 0.05% BSA), was then added to all of the wells of the plate. Fatty acid synthase Human or rat enzyme (0.4 μg, produced in house), dissolved in 20 mM Tris/HCl pH 7.5, 5 mM BOG, 1 mM TCEP, 10% glycerol, 1 mM EDTA, 150 mM NaCl, was then added to the plate in a volume of […]. Enzyme was added to all but the last two columns of the plate, to which, 10 μl of assay buffer was added (0.1M Tris ph7.5, 0.1 mM EDTA, 1 mM glutathione, 0.05% BSA) to provide a no enzyme assay control. Following a 15-minute incubation period, at room temperature, the plates were read on an Envision plate reader using 340 nm excitation and 460 nm emission filters. This served as a time zero background read. Substrates (an equal mix of both malonyl and acetyl CoA) were then added to the plates in a total volume of 5 μl. The concentrations of malonyl and acetyl CoA in the mixture were 500 μM and 150 μM respectively. Both were prepared as 10 mM stock solutions in distilled water and were subsequently diluted to working concentrations in assay buffer. Plates were then incubated for a further 60 minutes, at room temperature, before being read again on the Envision reader using the same parameters as previously used. The data was analysed by subtracting the background time zero data from that generated following the final 60 minute incubate and the percent inhibition compared to the maximum and minimum assay controls was determined. Sigmoid curves were fitted using Origin 7.5 Client software and IC50 values were determined.

T1 sequence (P49327 whole entry): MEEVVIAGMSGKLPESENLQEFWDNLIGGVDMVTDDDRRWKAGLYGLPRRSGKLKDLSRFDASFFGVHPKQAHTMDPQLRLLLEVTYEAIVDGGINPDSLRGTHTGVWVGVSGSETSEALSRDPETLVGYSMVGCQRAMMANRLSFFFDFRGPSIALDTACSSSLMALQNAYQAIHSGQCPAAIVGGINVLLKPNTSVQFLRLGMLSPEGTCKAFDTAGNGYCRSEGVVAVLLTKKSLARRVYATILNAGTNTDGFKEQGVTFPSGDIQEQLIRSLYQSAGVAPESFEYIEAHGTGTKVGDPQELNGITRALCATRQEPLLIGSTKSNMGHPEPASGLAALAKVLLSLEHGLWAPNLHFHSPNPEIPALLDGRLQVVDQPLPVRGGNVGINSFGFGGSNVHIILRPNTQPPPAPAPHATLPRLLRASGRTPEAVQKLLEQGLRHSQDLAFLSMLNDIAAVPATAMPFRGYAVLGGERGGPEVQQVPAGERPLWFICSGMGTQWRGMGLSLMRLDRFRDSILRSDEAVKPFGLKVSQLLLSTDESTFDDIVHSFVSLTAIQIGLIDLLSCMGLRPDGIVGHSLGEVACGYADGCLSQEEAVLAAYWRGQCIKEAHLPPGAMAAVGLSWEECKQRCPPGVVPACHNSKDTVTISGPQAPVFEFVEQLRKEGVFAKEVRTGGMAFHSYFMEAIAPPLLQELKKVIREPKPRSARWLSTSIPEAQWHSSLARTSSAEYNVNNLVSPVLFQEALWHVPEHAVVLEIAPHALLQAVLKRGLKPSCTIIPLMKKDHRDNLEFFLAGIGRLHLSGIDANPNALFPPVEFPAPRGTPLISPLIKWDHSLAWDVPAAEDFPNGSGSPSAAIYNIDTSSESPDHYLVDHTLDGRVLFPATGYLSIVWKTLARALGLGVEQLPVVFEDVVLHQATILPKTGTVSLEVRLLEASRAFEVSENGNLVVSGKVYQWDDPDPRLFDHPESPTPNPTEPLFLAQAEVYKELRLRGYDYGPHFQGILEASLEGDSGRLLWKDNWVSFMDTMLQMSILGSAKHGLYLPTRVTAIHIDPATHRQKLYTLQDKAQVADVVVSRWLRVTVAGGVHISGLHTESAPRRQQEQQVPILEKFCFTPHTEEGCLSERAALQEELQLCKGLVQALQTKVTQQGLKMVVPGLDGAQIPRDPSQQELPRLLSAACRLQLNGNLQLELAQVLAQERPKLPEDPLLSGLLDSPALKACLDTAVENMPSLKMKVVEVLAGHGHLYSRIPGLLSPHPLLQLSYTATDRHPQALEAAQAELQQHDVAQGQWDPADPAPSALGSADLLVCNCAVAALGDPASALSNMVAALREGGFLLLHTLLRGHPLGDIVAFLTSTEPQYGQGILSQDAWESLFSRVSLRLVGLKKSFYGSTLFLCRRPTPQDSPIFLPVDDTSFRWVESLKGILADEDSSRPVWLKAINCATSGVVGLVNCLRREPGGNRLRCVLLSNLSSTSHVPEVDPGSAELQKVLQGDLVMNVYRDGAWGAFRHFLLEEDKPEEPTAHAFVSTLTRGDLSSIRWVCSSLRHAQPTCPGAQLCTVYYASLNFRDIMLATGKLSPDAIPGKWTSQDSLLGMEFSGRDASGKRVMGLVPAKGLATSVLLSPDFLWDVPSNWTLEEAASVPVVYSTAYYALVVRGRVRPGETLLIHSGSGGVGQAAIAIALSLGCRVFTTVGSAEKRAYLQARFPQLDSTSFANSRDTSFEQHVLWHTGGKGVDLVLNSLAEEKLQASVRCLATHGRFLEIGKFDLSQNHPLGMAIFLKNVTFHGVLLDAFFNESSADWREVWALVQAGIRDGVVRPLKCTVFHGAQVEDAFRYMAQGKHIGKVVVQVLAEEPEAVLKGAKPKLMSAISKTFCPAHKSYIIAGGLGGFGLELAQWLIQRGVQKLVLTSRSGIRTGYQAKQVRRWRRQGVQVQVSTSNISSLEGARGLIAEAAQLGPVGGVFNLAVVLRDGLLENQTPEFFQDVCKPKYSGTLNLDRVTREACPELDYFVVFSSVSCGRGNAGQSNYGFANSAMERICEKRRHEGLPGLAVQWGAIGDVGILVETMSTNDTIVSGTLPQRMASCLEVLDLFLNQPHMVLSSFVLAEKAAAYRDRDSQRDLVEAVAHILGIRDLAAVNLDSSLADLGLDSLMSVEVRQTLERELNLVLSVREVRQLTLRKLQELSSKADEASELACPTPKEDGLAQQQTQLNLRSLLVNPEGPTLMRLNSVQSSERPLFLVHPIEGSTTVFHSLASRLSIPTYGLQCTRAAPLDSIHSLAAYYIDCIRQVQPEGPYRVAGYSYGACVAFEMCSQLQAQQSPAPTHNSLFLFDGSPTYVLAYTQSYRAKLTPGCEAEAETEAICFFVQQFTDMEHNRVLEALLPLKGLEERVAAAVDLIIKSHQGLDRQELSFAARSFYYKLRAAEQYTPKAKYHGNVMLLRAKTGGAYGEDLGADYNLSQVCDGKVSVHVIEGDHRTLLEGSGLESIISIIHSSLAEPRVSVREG

Compared with `Cc1ccc(NS(=O)(=O)Cc2cccc(F)c2)cc1C(=O)N1CCC(c2ccc(C#N)cc2)CC1` [Example 52, N-[3-[4-(4-cyanophenyl)piperidine-1-carbonyl]-4-methyl-phenyl]-1-(3-fluorophenyl)methanesulfonamide], `CCS(=O)(=O)Nc1ccc(C)c(C(=O)N2CCC(c3ccc(C#N)cc3)CC2)c1` [Example 36, N-[3-[4-(4-cyanophenyl)piperidine-1-carbonyl]-4-methyl-phenyl]ethanesulfonamide] is lower in inhibition at 100 µM: 91% for the first, 88% for the second.

Going from `N#Cc1ccc(C2CCN(C(=O)c3ccc(Cl)c(NS(=O)(=O)c4ccc(Cl)cc4)c3)CC2)cc1` [Example 192, 4-chloro-N-[2-chloro-5-[4-(4-cyanophenyl)piperidine-1-carbonyl]phenyl]benzene-sulfonamide] to `N#Cc1ccc(C2CCN(C(=O)c3ccc(Cl)c(NS(=O)(=O)c4ccccc4F)c3)CC2)cc1` [Example 191, N-[2-chloro-5-[4-(4-cyanophenyl)piperidine-1-carbonyl]phenyl]-2-fluorobenzenesulfonamide], the inhibition at 100 µM falls from 67% to 63%.

Going from `Cc1ccc(C(=O)N2CCC(c3ccc(C#N)cc3)CC2)cc1NS(=O)(=O)CCN` [Example 72, 2-amino-N-[5-[4-(4-cyanophenyl)piperidine-1-carbonyl]-2-methyl-phenyl]ethanesulfonamide] to `C=CCS(=O)(=O)Nc1cc(C(=O)N2CCC(c3ccc(C#N)cc3)CC2)ccc1C` [Example 146, N-(5-(4-(4-cyanophenyl)piperidine-1-carbonyl)-2-methylphenyl)prop-2-ene-1-sulfonamide], the inhibition at 100 µM falls from 93% to 90%.

Going from `Cc1ccc(C(=O)N2CCC(c3ccc(C#N)cc3)CC2)cc1NS(=O)(=O)Cc1ccc(F)cc1F` [Example 61, N-[5-[4-(4-cyanophenyl)piperidine-1-carbonyl]-2-methyl-phenyl]-1-(2,4-difluorophenyl)methanesulfonamide] to `Cc1ccc(C(=O)N2CCC(c3ccc(C#N)cc3)CC2)cc1NS(=O)(=O)CC(F)(F)F` [Example 60, N-[5-[4-(4-cyanophenyl)piperidine-1-carbonyl]-2-methyl-phenyl]-2,2,2-trifluoro-ethanesulfonamide], the inhibition at 100 µM falls from 93% to 83%.

First: N#Cc1ccc(C2CCN(C(=O)c3ccc(F)c(NS(=O)(=O)Cc4ccccc4)c3)CC2)cc1 [Example 194, N-[5-[4-(4-cyanophenyl)piperidine-1-carbonyl]-2-fluorophenyl]-1-phenylmethane-sulfonamide]
Second: N#Cc1ccc(C2CCN(C(=O)c3cccc(NS(=O)(=O)Cc4ccccc4)c3)CC2)cc1 [Example 66, N-[3-[4-(4-cyanophenyl)piperidine-1-carbonyl]phenyl]-1-phenyl-methanesulfonamide]
The inhibition at 100 µM of the first is lower: 69% for the first, 80% for the second.

Compared with `Cc1ccc(C(=O)N2CCC(c3ccc(Cl)cc3)CC2)cc1NS(=O)(=O)C1CCS(=O)(=O)C1` (stereo not shown) [Example 216, N-[5-[4-(4-chlorophenyl)piperidine-1-carbonyl]-2-methylphenyl]-1,1-dioxothiolane-3-sulfonamide], `Cc1ccc(C(=O)N2CCC(c3ccc(S(C)(=O)=O)cc3)CC2)cc1NS(C)(=O)=O` [Example 68, N-[2-methyl-5-[4-(4-methylsulfonylphenyl)piperidine-1-carbonyl]phenyl]methanesulfonamide] is lower in inhibition at 100 µM: 89% for the first, 74% for the second.

Going from `C=CS(=O)(=O)Nc1cc(C(=O)N2CCC(c3ccc(C#N)cc3)CC2)ccc1C` [Example 98, N-[5-[4-(4-cyanophenyl)piperidine-1-carbonyl]-2-methyl-phenyl]ethenesulfonamide] to `Cc1ccc(C(=O)N2CCC(c3ccc(C#N)cc3)CC2)cc1NS(=O)(=O)CC(=O)O` [Example 130, 2-[[5-[4-(4-cyanophenyl)piperidine-1-carbonyl]-2-methyl-phenyl]sulfamoyl]acetic acid], the inhibition at 100 µM falls from 110% to 77%.

Compared with `Cc1ccc(C(=O)N2CCC(c3ccc(C#N)cc3)CC2)cc1NS(=O)(=O)c1ccc2c(c1)CC(=O)N2` [Example 129, N-[5-[4-(4-cyanophenyl)piperidine-1-carbonyl]-2-methyl-phenyl]-2-oxo-1,3-dihydroindole-5-sulfonamide], `Cc1ccc(C(=O)N2CCC(c3ccc(C#N)cc3)CC2)cc1NS(=O)(=O)c1ccc(C#N)cc1` [Example 23, 4-cyano-N-[5-[4-(4-cyanophenyl)piperidine-1-carbonyl]-2-methyl-phenyl]benzenesulfonamide] is lower in inhibition at 100 µM: 95% for the first, 89% for the second.

Going from `Cc1cc(C)c(C(=O)N2CCC(c3ccc(C#N)cc3)CC2)cc1NS(C)(=O)=O` [Example 28, N-[5-[4-(4-cyanophenyl)piperidine-1-carbonyl]-2,4-dimethyl-phenyl]methanesulfonamide] to `Cc1ccc(NS(C)(=O)=O)cc1C(=O)N1CCC(c2ccc(C#N)cc2)CC1` [Example 7, N-[3-[4-(4-cyanophenyl)piperidine-1-carbonyl]-4-methyl-phenyl]methanesulfonamide], the inhibition at 100 µM falls from 93% to 78%.

Going from `Cc1ccc(C(=O)N2CCC(c3ccc(C#N)cc3)CC2)cc1NS(=O)(=O)CS(C)(=O)=O` [Example 195, N-[5-[4-(4-cyanophenyl)piperidine-1-carbonyl]-2-methylphenyl]-1-methylsulfonyl-methanesulfonamide] to `Cc1ccc(C(=O)N2CCC(c3ccc(C#N)cc3)CC2)cc1NS(=O)(=O)CC(=O)NCCO` [Example 92, 2-[[5-[4-(4-cyanophenyl)piperidine-1-carbonyl]-2-methyl-phenyl]sulfamoyl]-N-(2-hydroxyethyl)acetamide], the inhibition at 100 µM rises from 72% to 80%.

Going from `Cc1ccc(NS(=O)(=O)c2ccccc2)cc1C(=O)N1CCC(c2ccc(C#N)cc2)CC1` [Example 35, N-[3-[4-(4-cyanophenyl)piperidine-1-carbonyl]-4-methyl-phenyl]benzenesulfonamide] to `COC(=O)c1ccccc1S(=O)(=O)Nc1cc(C(=O)N2CCC(c3ccc(C#N)cc3)CC2)ccc1C` [Example 108, methyl 2-[[5-[4-(4-cyanophenyl)piperidine-1-carbonyl]-2-methyl-phenyl]sulfamoyl]benzoate], the inhibition at 100 µM falls from 89% to 78%.

Compared with `Cc1ccc(C(=O)N2CCC(c3ccc(C(F)(F)F)cc3)CC2)cc1NS(C)(=O)=O` [Example 157, N-[2-methyl-5-[4-[4-(trifluoromethyl)phenyl]piperidine-1-carbonyl]phenyl]methanesulfonamide], `Cc1ccc(C(=O)N2CCC(c3ccc(-c4ccccc4)cc3)CC2)cc1NS(C)(=O)=O` [Example 175, N-[2-methyl-5-[4-(4-phenylphenyl)piperidine-1-carbonyl]phenyl]methanesulfonamide] is lower in inhibition at 100 µM: 78% for the first, 71% for the second.

Compared with `Cc1ccc(C(=O)N2CCC(c3ccc(CN4CCOCC4)cc3)CC2)cc1NS(C)(=O)=O` [Example 243, N-[2-methyl-5-[4-[4-(morpholin-4-ylmethyl)phenyl]piperidine-1-carbonyl]phenyl]methanesulfonamide], `Cc1ccc(C(=O)N2CCC(c3ccc(CNS(=O)(=O)CC(C)C)cc3)CC2)cc1NS(C)(=O)=O` [Example 238, N-[[4-[1-(3-methanesulfonamido-4-methylbenzoyl)piperidin-4-yl]phenyl]methyl]-2-methylpropane-1-sulfonamide] is higher in inhibition at 100 µM: 69.9% for the first, 81.3% for the second.

`Cc1ccc(C(=O)N2CCC(c3ccc(CCCC(=O)O)cc3)CC2)cc1NS(=O)(=O)C1CCCCC1` [Example 246, 4-[4-[[13-(cyclohexylsulfonylamino)-4-methylbenzoyl]piperidin-4-yl]phenyl]butanoic acid] was tested, and the Inhib % was 92.8%.

Same assay, conditions: compounds excluded from the claims by proviso

With `Cc1ccc(C(=O)N2CCC(c3ccc(S(=O)(=O)N4CCCC4)cc3)CC2)cc1NS(C)(=O)=O` [N-[2-methyl-5-[4-(4-pyrrolidin-1-ylsulfonylphenyl)piperidine-1-carbonyl]phenyl]methanesulfonamide] the “IC50s in the range of about 0.001 μM to about 30 μM” value (shortened to “IC50s in the range”) was “do not have IC50s in the range of about 0.001 μM to about 30 μM”.
For `Cc1ccc(C(=O)N2CCC(c3ccc(CC(=O)O)cc3)CC2)cc1NS(C)(=O)=O` [2-[4-[1-(3-methanesulfonamido-4-methylbenzoyl)piperidin-4-yl]phenyl]acetic acid], the “IC50s in the range” value was “do not have IC50s in the range of about 0.001 μM to about 30 μM”.
For `Cc1ccc(C(=O)N2CCC(c3cccc(Br)c3)CC2)cc1NS(C)(=O)=O` [N-[5-[4-(3-bromophenyl)piperidine-1-carbonyl]-2-methylphenyl]methanesulfonamide], the “IC50s in the range” value was “do not have IC50s in the range of about 0.001 μM to about 30 μM”.

Same assay, conditions: unit inferred

For `Cc1ccc(C(=O)N2CCC(c3ccc(CNS(=O)(=O)CC(=O)O)cc3)CC2)cc1NS(C)(=O)=O` [Example 253, 2-[[4-[1-(3-methanesulfonamido-4-methylbenzoyl)piperidin-4-yl]phenyl]methylsulfamoyl]acetic acid], the IC50 was 12.7 µM.

From patent US20090105305A1, “Therapeutic Agents - 550” (AstraZeneca AB, priority 2006, published 2009)
